Assay results as given in US20260176700A1, “TOXICITY MARKER FOR 5-FLUOROURACIL” (Oxford University Innovation Limited, priority 2022, published 2026).

Columns and labels:
[1] = test system: patients with reduced DPD activity; conditions: patients with germline DPYD variants / reduced DPD activity, 5FU-related toxicity; cited from earlier work
[2] = test system: colorectal cancer patients; assay: QUASAR 2 clinical trial: cardiovascular related adverse events under capecitabine; type: in vivo, human; conditions: stage II/III colorectal cancer patients administered capecitabine (alone or plus bevacizumab), most common events cardiac chest pain and angina
Procedure: QUASAR 2, a randomised controlled trial of capecitabine+bevacizumab has been described previously (Kerr, R. S., et al. Lancet Oncol, 2016. 17(11):1543-1557; and Rosmarin, D., et al. Gut, 2015. 64(1):111-20). Briefly, participants were stage II/stage III colorectal cancer patients with performance status 0/1 and normal renal function. Patients were randomly assigned (1:1) to receive eight 3-week cycles of oral capecitabine alone (1250 mg/m^2 twice daily for 14 days followed by a break for 7 days) or the same regimen of oral capecitabine plus 16 cycles of 7.5 mg/kg bevacizumab by intravenous infusion over 90 min on day 1 of each cycle. All patients consented for use of biological samples and medical records in research. Cardiovascular toxicity was confirmed by two independent clinicians reviewing patient case report forms.
3% of colorectal cancer patients administered with capecitabine as part of the QUASAR 2 clinical trial experienced cardiovascular related adverse events. The most commonly described events were cardiac chest pain and angina. The inventors performed a genome wide association study to identify genetic markers associated with cardiovascular adverse events under an additive genetic model. Given the rarity of cardiovascular toxicity, variants with a minor allele frequency (MAF)<10% were filtered out. […]

Structure (SMILES)	patients with reduced DPD activity who experience cardiotoxicity [1]	patients who experienced cardiovascular related adverse events [2] [%]
O=c1[nH]cc(F)c(=O)[nH]1 [5FU, 5-flurouracil]	2-5%	–
CCCCCOC(=O)Nc1nc(=O)n(C2OC(C)C(O)C2O)cc1F (centres unmarked) [capecitabine, pentyl [1-(3,4-dihydroxy-5-methyltetrahydrofuran-2-yl)-5-fluoro-2-oxo-1H-pyrimidin-4-yl]carbamate]	–	3
